Results published in ChEMBL document CHEMBL1201862, “PubChem BioAssay data set” (2004).
The source made the active and inactive calls.

Columns and labels:
[1] = Luminescence Cell-Based Dose Response HTS to Identify Activators of Luciferase Translation or Activity in H4 […] Cells. [Related pubchem assays: 1829 (Project Summary), 1814 (Primary HTS)]; format: functional
[2] = compound autofluorescence in calcium buffer – biochemical, fluorescence, no RTF in test wells, artefact control for cardiac thin filament activator project, dose response (AID 504697)
Troponin, cardiac muscle = Troponin, cardiac muscle (Homo sapiens, UniProt P19429+P45379+P63316); assay: Fluorescence-based biochemical high throughput dose response assay for activators of the calcium sensitivity of cardiac Regulated Thin Filaments (RTF). [Related pubchem assays (depositor defined):AID493008, AID493018, AID504382, AID504383]; format: protein-complex assay
[3] = Luminescence Cell-Based/Microorganism Confirmation at Dose of Inhibitors of Trypanosoma cruzi Infection. [Related pubchem assays: 1885, 1968 ]; format: functional
[4] = Trypanosoma cruzi growth suppression in host cells – NIH3T3 host cells, beta-gal luminescence, confirmation (AID 2044); format: functional, cell-based;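 note: intracellular parasites grown in NIH/3T3 mouse fibroblasts as host cells; luminescent beta-galactosidase reporter signal from transgenic T. cruzi replicating inside host cells; inhibitors lower the luminescence signal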
[5] = Luminescence Cell-Based Secondary HTS screen to identify cytotoxic compounds of NIH3T3 cells. [Related pubchem assays: 1885, 1968 ]; format: functional
[6] = NIH3T3 cell viability loss – ATP luminescence, mouse fibroblasts, counter-screen, dose response (AID 2010); format: functional, cell-based;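 note: cells exposed to compound for about 90 hours before reading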
[7] = NIH/3T3 cell viability loss – mouse embryonic fibroblasts, dry powder, set 2, cytotoxicity control, dose response (AID 493247); format: functional, cell-based; conditions: Fibroblast
Trypanosoma cruzi = assay: anti-trypanosomal activity in host cells – cell-based, plate reader, dry powder, set 3, dose response (AID 493197); format: functional
[8] = T. cruzi infection blockers in NIH3T3 cells – beta-gal luminescence, NIH3T3 host cells, confirmation (AID 2630); format: functional, cell-based; conditions: Mus musculus
[9] = T. cruzi growth inhibition in host cells, dose response, cell-based, plate reader, dry powder, set 2 (AID 652275); format: functional
[10] = anti-trypanosomal activity in BESM host cells – imaging, CA-I/72 strain, bovine embryo skeletal muscle, dry powder, dose response (AID 651885); format: functional, cell-based
[11] = target: G-protein coupled receptor 55 (Homo sapiens, UniProt Q9Y2T6); assay: inhibition of LPI-stimulated GPR55 beta-arrestin translocation – imaging, U2OS, beta-arrestin-GFP, LPI agonist, primary screen (AID 2013); format: functional;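 note: antagonist potency measured as reduced agonist-driven arrestin aggregation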
G-protein coupled receptor 55, sequence (Q9Y2T6 whole entry): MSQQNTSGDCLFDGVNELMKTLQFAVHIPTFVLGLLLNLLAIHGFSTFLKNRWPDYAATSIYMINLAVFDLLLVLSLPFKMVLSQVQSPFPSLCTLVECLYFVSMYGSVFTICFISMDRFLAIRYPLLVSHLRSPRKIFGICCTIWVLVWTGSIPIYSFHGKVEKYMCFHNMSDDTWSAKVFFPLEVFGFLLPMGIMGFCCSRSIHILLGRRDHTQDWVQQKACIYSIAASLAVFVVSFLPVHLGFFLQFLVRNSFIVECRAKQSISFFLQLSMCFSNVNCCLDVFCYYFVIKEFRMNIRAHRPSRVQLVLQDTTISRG

[12] = target: T1, Peroxisome proliferator-activated receptor gamma (Homo sapiens, UniProt P37231); assay: competitive ligand displacement at PPARg – biochemical, TR-FRET, LanthaScreen, PPARg partial agonist project, dose response (AID 504446)
T1 sequence (P37231 whole entry): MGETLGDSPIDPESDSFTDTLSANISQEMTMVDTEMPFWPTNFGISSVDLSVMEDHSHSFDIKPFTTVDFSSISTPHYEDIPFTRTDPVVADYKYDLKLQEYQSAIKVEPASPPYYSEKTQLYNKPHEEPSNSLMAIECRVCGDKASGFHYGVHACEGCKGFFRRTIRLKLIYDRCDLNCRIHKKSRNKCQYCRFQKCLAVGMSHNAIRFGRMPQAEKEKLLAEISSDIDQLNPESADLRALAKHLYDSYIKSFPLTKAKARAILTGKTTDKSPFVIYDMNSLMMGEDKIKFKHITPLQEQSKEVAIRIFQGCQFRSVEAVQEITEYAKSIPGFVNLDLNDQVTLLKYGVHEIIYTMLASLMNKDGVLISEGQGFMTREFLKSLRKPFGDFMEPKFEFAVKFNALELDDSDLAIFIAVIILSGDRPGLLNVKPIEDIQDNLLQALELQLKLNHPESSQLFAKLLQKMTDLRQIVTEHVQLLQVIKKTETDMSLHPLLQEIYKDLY

[13] = target: T1, Peroxisome proliferator-activated receptor gamma; assay: competitive ligand displacement at PPARg – biochemical, fluorescence polarization, PolarScreen, PPARg partial agonist project, dose response (AID 504453)
[14] = target: T1, Peroxisome proliferator-activated receptor gamma; assay: PPARg transcriptional activation, reporter cells – cell-based, luminescence, assay provider, dose response (AID 504447); format: functional
[15] = target: DNA damage-inducible transcript 3 protein (Mus musculus, UniProt P35639); format: functional, Cricetulus griseus
DNA damage-inducible transcript 3 protein, sequence (P35639 whole entry): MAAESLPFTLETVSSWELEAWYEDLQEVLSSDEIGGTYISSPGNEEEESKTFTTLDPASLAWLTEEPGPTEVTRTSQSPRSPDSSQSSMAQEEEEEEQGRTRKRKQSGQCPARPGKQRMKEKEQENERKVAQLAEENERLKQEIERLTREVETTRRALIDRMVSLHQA

Phosphomannomutase 2 = Phosphomannomutase 2 (Homo sapiens, UniProt O15305); assay: Counter screen SAR assay for PMM2 inhibitors via a fluorescence intensity assay. [Related pubchem assays (depositor defined):AID1545, AID1574]
Phosphomannomutase 2, sequence (O15305 whole entry): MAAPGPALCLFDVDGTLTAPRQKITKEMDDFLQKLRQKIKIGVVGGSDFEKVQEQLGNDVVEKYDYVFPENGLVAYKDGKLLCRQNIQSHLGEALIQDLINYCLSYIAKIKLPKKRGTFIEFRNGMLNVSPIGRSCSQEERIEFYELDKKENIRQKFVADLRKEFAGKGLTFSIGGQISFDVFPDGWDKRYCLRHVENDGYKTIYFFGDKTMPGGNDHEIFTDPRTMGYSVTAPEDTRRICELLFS

[16] = target: Phosphoethanolamine/phosphocholine phosphatase (Homo sapiens, UniProt Q8TCT1); assay: SAR assay for compounds that inhibit PHOSPHO1. [Related pubchem assays (depositor defined):AID1545, AID1565, AID1574]
Phosphoethanolamine/phosphocholine phosphatase, sequence (Q8TCT1 whole entry): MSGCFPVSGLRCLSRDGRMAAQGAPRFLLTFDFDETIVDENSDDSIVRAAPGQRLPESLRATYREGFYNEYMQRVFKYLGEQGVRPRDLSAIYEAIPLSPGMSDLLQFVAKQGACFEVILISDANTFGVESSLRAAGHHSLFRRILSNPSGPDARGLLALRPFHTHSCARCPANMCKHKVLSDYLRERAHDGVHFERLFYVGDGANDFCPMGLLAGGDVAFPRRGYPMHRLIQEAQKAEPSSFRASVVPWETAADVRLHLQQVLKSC

In the case of `N=c1oc2c3c4c(cc2cc1C(=O)Nc1ccccc1)CCCN4CCC3`, the EC50 [1] is reported as 8.27 µM (active), the EC50 [2] is reported as > 0.0109 µM (active) and the EC50 (Troponin, cardiac muscle) is reported as > 0.0109 µM (active).

With `COc1ccc(CCN(C)C(=O)C2CCCN(Cc3ccc(OC)c(OC)c3)C2)cc1OC` (centres undefined) the EC50 [3] was 0.192 µM (active), the EC50 [4] was < 0.1 µM (active) and the EC50 [5] was > 195 µM (not active). For the same compound, the EC50 [6] was > 60 µM (not active), the AC50 [7] was 80.4 µM (active) and the AC50 (Trypanosoma cruzi) was 0.26 µM (active). The EC50 [8] was 0.192 µM (active), the AC50 [9] was 0.252 µM (active) and the IC50 [10] was > 20 µM (inactive).

With `C=CCN1C(=O)/C(=C/Nc2ccc(Cc3ccncc3)cc2)C(=O)NC1=S` the IC50 [11] was 0.543 µM (active).

With `Cc1ccc2nc(N3C(=O)C(O)=C(C(=O)c4ccc(C)o4)C3c3ccco3)sc2c1` (centres undefined) the IC50 [12] was 2.6 µM (active), the IC50 [13] was 22 µM (active) and the EC50 [14] was 18 µM (active).

For `CCOC(=O)c1c(CN2CCOCC2)n(-c2ccccc2)c2cc(Br)c(O)cc12.Cl`, the “Absolute IC50 (CHOP)” value [15] was 10 µM.

For `CC(C)(C)c1ccc(-n2sc3ccccc3c2=O)cc1`, the IC50 (Phosphomannomutase 2) was 82.5 µM (active) and the IC50 [16] was 54.3 µM (inactive).
